In general, Ki refers to the equilibrium dissociation constant of an inhibitor or competing ligand from its target. As usually defined, the inhibition is the share of the control response that was lost under treatment.

Experiment [1] addresses T1, Beta-galactoside alpha-2,6-sialyltransferase 1 (Homo sapiens) (UniProt P15907).
T1 sequence (whole entry): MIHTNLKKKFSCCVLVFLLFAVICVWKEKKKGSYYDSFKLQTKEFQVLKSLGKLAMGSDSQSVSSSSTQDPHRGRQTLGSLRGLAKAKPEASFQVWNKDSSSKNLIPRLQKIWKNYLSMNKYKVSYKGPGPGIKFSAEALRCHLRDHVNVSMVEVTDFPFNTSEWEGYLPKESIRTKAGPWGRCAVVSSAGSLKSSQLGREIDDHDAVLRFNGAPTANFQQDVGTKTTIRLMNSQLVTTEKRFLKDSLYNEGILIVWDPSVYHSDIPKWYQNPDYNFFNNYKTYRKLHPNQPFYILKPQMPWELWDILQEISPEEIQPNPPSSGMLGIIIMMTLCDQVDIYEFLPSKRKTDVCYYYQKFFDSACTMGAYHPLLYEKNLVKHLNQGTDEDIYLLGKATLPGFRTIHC
In words: Ratio of CMP-Neu5Ac Km to compound Ki for human recombinant ST6Gal-1.

The target in experiment [2] is T2, Beta-galactoside alpha-2,6-sialyltransferase 1 (Homo sapiens, UniProt P15907).
T2 sequence (P15907 whole entry): T1 sequence (whole entry)
Nature of the experiment: Competitive inhibition of human recombinant ST6Gal-1 using CMP-Neu5Ac and p-nitrophenyl LacNAc as donar and acceptor by Lineweaver-Burk double reciprocal plot analysis.

The target of experiment [3] is T1, Beta-galactoside alpha-2,6-sialyltransferase 1 (Homo sapiens). Nature of the experiment: Inhibition of human recombinant ST6Gal-1 assessed as trisaccharide formation using CMP-Neu5Ac and p-nitrophenyl LacNAc as donar and acceptor at 10 uM by RP-HPLC analysis.
Experiment [4] is described as follows: Inhibition of rat alpha-2,6-sialyltransferase.

Several values for one entry are separate records, joined by “and”; a condition that tells them apart may be missing. Equal entries are not always repeated.

Turning to `CC(=O)NC[C@@H]1C[C@@H](C(OP(=O)(O)OC[C@H]2O[C@@H](n3ccc(N)nc3=O)[C@H](O)[C@@H]2O)P(=O)(O)O)C[C@H]1OCc1ccccc1` (stereo partly drawn), the Ratio in experiment [1] stood at 48.1. The Ki in experiment [2] came to 865 nM. For the same molecule, in experiment [3], the inhibition is 46.3% and 70.8%.

In the case of `Nc1ccn([C@@H]2O[C@H](COP(=O)(O)OC(c3cccc(Oc4ccccc4)c3)P(=O)(O)O)[C@@H](O)[C@H]2O)c(=O)n1` (stereo partly drawn), the Ratio in experiment [1] was 2190. For the same molecule, in experiment [2], the Ki came to 19 nM. Also, the inhibition in experiment [3] was found to be 98.1%.

For the molecule `CC(=O)N[C@H]1[C@H](Oc2ccccc2)OC(C(OP(=O)(O)OC[C@H]2O[C@@H](n3ccc(N)nc3=O)[C@H](O)[C@@H]2O)P(=O)(O)O)=C[C@@H]1O` (stereo partly drawn), in experiment [4], the Ki is 29 nM.

`Nc1ccn([C@@H]2O[C@H](COP(=O)(O)OC(C3CCCC3)P(=O)(O)O)[C@@H](O)[C@H]2O)c(=O)n1` (stereo in doubt; 2l): the inhibition in experiment [3] was determined as 12.8%.

With `Nc1ccn([C@@H]2O[C@H](COP(=O)(O)OC(C3CCCC3)P(=O)(O)O)[C@@H](O)[C@H]2O)c(=O)n1` (stereo in doubt; 2s) [listing 1 of 2 here], the Ki in experiment [2] turned out to be 5850 nM.

Regarding `Nc1ccn([C@@H]2O[C@H](COP(=O)(O)OC(C3CCCC3)P(=O)(O)O)[C@@H](O)[C@H]2O)c(=O)n1` (stereo in doubt; 2s) [listing 2 of 2 here], the Ratio in experiment [1] came to 7.1. In experiment [3], the inhibition was 43.2%.

As to `Nc1ccn([C@@H]2O[C@H](COP(=O)(O)OC([C@H]3C[C@@H](O)[C@@H](O)C3)P(=O)(O)O)[C@@H](O)[C@H]2O)c(=O)n1` (stereo in doubt; 3l), the inhibition in experiment [3] was determined as 13%.

As to `Nc1ccn([C@@H]2O[C@H](COP(=O)(O)OC([C@H]3C[C@@H](O)[C@@H](O)C3)P(=O)(O)O)[C@@H](O)[C@H]2O)c(=O)n1` (stereo in doubt; 3s), the inhibition in experiment [3] was determined as 31%.

Take `CC(=O)N[C@H]1C[C@H](C(OP(=O)(O)OC[C@H]2O[C@@H](n3ccc(N)nc3=O)[C@H](O)[C@@H]2O)P(=O)(O)O)C[C@H]1O` (stereo in doubt; 4Sl): in experiment [3], the inhibition is 9.99%.

`CC(=O)N[C@H]1C[C@H](C(OP(=O)(O)OC[C@H]2O[C@@H](n3ccc(N)nc3=O)[C@H](O)[C@@H]2O)P(=O)(O)O)C[C@H]1O` (stereo in doubt; 4Ss) [listing 1 of 2 here]: in experiment [2], the Ki is 4310 nM.

With `CC(=O)N[C@H]1C[C@H](C(OP(=O)(O)OC[C@H]2O[C@@H](n3ccc(N)nc3=O)[C@H](O)[C@@H]2O)P(=O)(O)O)C[C@H]1O` (stereo in doubt; 4Ss) [listing 2 of 2 here], the Ratio in experiment [1] stood at 9.6. Further, the inhibition in experiment [3] is 50.3%.

As to `CC(=O)N[C@H]1C[C@@H](C(OP(=O)(O)OC[C@H]2O[C@@H](n3ccc(N)nc3=O)[C@H](O)[C@@H]2O)P(=O)(O)O)C[C@H]1OCc1ccccc1` (stereo in doubt; 5Rl), in experiment [3], the inhibition came out at 22.1%.

For `CC(=O)N[C@H]1C[C@@H](C(OP(=O)(O)OC[C@H]2O[C@@H](n3ccc(N)nc3=O)[C@H](O)[C@@H]2O)P(=O)(O)O)C[C@H]1OCc1ccccc1` (stereo in doubt; 5Rs) [listing 1 of 2 here], in experiment [2], the Ki is 1510 nM.

In the case of `CC(=O)N[C@H]1C[C@@H](C(OP(=O)(O)OC[C@H]2O[C@@H](n3ccc(N)nc3=O)[C@H](O)[C@@H]2O)P(=O)(O)O)C[C@H]1OCc1ccccc1` (stereo in doubt; 5Rs) [listing 2 of 2 here], the Ratio in experiment [1] was 27.6. The inhibition in experiment [3] came to 65.9%.

Regarding `CC(=O)N[C@H]1C[C@H](C(OP(=O)(O)OC[C@H]2O[C@@H](n3ccc(N)nc3=O)[C@H](O)[C@@H]2O)P(=O)(O)O)C[C@H]1OCc1ccccc1` (stereo in doubt; 5Sl) [listing 1 of 2 here], the inhibitory constant (Ki) in experiment [2] was 436 nM.

Turning to `CC(=O)N[C@H]1C[C@H](C(OP(=O)(O)OC[C@H]2O[C@@H](n3ccc(N)nc3=O)[C@H](O)[C@@H]2O)P(=O)(O)O)C[C@H]1OCc1ccccc1` (stereo in doubt; 5Sl) [listing 2 of 2 here], the Ratio in experiment [1] was determined as 95.5. Further, the inhibition in experiment [3] is 75.3%.

For `CC(=O)N[C@H]1C[C@H](C(OP(=O)(O)OC[C@H]2O[C@@H](n3ccc(N)nc3=O)[C@H](O)[C@@H]2O)P(=O)(O)O)C[C@H]1OCc1ccccc1` (stereo in doubt; 5Ss) [listing 1 of 2 here], the Ki in experiment [2] stood at 1630 nM.

On to `CC(=O)N[C@H]1C[C@H](C(OP(=O)(O)OC[C@H]2O[C@@H](n3ccc(N)nc3=O)[C@H](O)[C@@H]2O)P(=O)(O)O)C[C@H]1OCc1ccccc1` (stereo in doubt; 5Ss) [listing 2 of 2 here], for which the Ratio in experiment [1] turned out to be 25.6. The inhibition in experiment [3] was found to be 63.9%.

Turning to `CC(=O)NC[C@@H]1CCC(OP(=O)(O)OC[C@H]2O[C@@H](n3ccc(N)nc3=O)[C@H](O)[C@@H]2O)(P(=O)(O)O)[C@H]1OCc1ccccc1` (stereo in doubt; 48l) [listing 1 of 2 here], the Ki in experiment [2] is 28 nM.

For `CC(=O)NC[C@@H]1CCC(OP(=O)(O)OC[C@H]2O[C@@H](n3ccc(N)nc3=O)[C@H](O)[C@@H]2O)(P(=O)(O)O)[C@H]1OCc1ccccc1` (stereo in doubt; 48l) [listing 2 of 2 here], in experiment [1], the Ratio was found to be 1490. Moreover, in experiment [3], the inhibition was 97.5%.

In the case of `CC(=O)NC[C@@H]1CCC(OP(=O)(O)OC[C@H]2O[C@@H](n3ccc(N)nc3=O)[C@H](O)[C@@H]2O)(P(=O)(O)O)[C@H]1OCc1ccccc1` (stereo in doubt; 48s) [listing 1 of 2 here], in experiment [2], the Ki came out at 477 nM.

For `CC(=O)NC[C@@H]1CCC(OP(=O)(O)OC[C@H]2O[C@@H](n3ccc(N)nc3=O)[C@H](O)[C@@H]2O)(P(=O)(O)O)[C@H]1OCc1ccccc1` (stereo in doubt; 48s) [listing 2 of 2 here], the Ratio in experiment [1] is 87.3. In experiment [3], the inhibition came to 74.1%.
